The text below walks through data of patent US10072023B2, “Diarylethene compounds and uses thereof” (SWITCH MATERIALS, INC., priority 2011, dated 2018).

What all share (format): physicochemical
The nature of data set [1]: Absorbance at photostationary state (PSS) under simulated sunlight or 365 nm light. Also noted: λ max: unit not given here. Conditions: for Absorbance at PSS, 365 nm: 365 nm light source; for Absorbance at PSS, 365 nm / Absorbance at PSS, full / Absorbance at PSS, +UV / λ max: 2.0×10^−5 M in triglyme; for sensitivity index: ratio of PSS under 365 nm light to PSS under full spectrum light (without UV blocking film); for Absorbance at PSS, full: simulated sunlight (QSUN solar simulator), no UV blocking film; for Absorbance at PSS, +UV: simulated sunlight with UV blocking film (cutoff 370 nm); for λ max: wavelength of maximum absorbance in the visible range, ring-closed isoform. The method in brief:
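Compounds at 2.0×10^−5 M in triglyme, photofaded with visible light, then irradiated with simulated sunlight (xenon arc) or 365 nm light until the UV/Vis spectrum stabilized. Also irradiated through a UV-blocking film (370 nm cutoff); sensitivity index is PSS under 365 nm divided by PSS under full spectrum.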

Data set [2] can be described thus: PSS and light composition (sunlight vs interior lighting). Conditions: 2×10^−4 M in triglyme. The text has this:
The difference in PSS as a function of light source type was investigated. The light sources included direct sunlight (filtered through window glass) and interior lighting. Irradiance information and spectral profiles of light sources are provided in Table 9 and FIG. 2, respectively. Six compounds (2×10^−4 M solutions of S096, S094, S079, S044, S042 and S035 in triglyme) were investigated and compared for performance on the basis of maximum difference in darkening ability between sunlight and interior lighting conditions. Darkening ability is indicated by the absorbance at λmax in the visible light spectrum for the ring-closed isomer of the chromophore.
Samples were then moved away from the window (300 cm from window, with interior lighting on) to alter the light composition by reducing the sunlight component. […] Finally, samples were again irradiated to the darkest state under sunlight conditions (20 cm from window) and then subjected to interior lighting conditions only (sunlight blocked out with blinds), allowing the samples to fade to a lower PSS specific to these lighting conditions as shown in FIG. 3.
Sample darkening times were less than one minute, while sample photofading times ranged as high as 20 minutes. […]

Data set [3] can be described thus: Solubility in indicated solvent. As to conditions: % wt soluble in triglyme. An excerpt:
A compound with greater solubility allows for a formulation or material with a greater concentration of coloured molecule to be incorporated into a composition. This may allow for increasing the contrast ratio for a compound with a lesser absorbance at PSS. Inclusion of a solubilizing group in a compound according to various embodiments of the invention may increase solubility. Examples of solubilizing groups may include alkoxy or siloxy groups.

Regarding `CC(C)CCOc1ccc(-c2cc(C3=C(c4cc(-c5ccc(OCCC(C)C)cc5)sc4-c4ccc(OCCC(C)C)cc4)C(F)(F)C(F)(F)C3(F)F)c(-c3ccc(OCCC(C)C)cc3)s2)cc1` [S094, 3,3′-(perfluorocyclopent-1-ene-1,2-diyl)bis(2,5-bis(4-(isopentyloxy)phenyl)thiophene)], in data set [1], the “Absorbance at PSS, 365 nm” value is recorded as 0.311; the sensitivity index is 1.74; the “Absorbance at PSS, full” value was 0.179; the “Absorbance at PSS, +UV” value is given as 0.103. This compound registered a λ max in data set [1] of 625. The “change in degree of coloration in response to variation in the light source” value in data set [2] is on record as “greatest change in degree of coloration”.

`CC(C)(C)c1ccc(-c2cc(C3=C(c4cc(-c5ccc(C(C)(C)C)cc5)sc4-c4ccc(C(C)(C)C)cc4)C(F)(F)C(F)(F)C3(F)F)c(-c3ccc(C(C)(C)C)cc3)s2)cc1` [S042]: in data set [1], the “Absorbance at PSS, 365 nm” value is on record as 0.233; the sensitivity index is reported as 2.40; the “Absorbance at PSS, full” value is on record as 0.097; the “Absorbance at PSS, +UV” value was 0.04. The compound further returned a λ max in data set [1] of 612. This compound also yielded a Solubility in data set [3] of 0.5 % wt. In data set [2], the “change in degree of coloration in response to variation in the light source” value is “greatest change in degree of coloration”.
